Measurements from US20250262186A1 (SANOFI, priority 2022, published 2025).

What follows are compounds tested against T1, ERα (Homo sapiens, UniProt P03372) (assay: Estrogen receptor degradation activity: breast cancer cell ERα in cell western assay in MCF7 cells). Settings: 0.3 μM, 4 hours, relative to fulvestrant 0.1 μM positive control.
T1 construct: made using a breast cancer cell ERα in cell western assay; host or cells: MCF7
T1 sequence (P03372 1-595): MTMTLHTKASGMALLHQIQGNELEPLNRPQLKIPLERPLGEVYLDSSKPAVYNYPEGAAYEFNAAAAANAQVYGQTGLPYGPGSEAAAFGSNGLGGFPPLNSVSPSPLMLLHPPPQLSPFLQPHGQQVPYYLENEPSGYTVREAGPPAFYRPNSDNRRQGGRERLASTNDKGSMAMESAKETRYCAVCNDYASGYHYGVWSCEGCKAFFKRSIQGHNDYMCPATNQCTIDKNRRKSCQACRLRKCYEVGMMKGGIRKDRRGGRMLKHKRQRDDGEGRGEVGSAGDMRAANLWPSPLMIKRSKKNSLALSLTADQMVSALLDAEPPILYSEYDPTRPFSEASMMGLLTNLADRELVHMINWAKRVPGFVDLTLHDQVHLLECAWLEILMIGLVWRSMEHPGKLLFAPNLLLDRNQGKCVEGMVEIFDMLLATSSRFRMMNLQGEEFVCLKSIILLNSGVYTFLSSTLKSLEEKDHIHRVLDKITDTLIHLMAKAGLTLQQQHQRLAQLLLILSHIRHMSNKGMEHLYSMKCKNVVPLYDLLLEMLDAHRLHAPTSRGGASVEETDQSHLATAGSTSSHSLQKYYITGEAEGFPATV
Format: cell-based
Description: Said test involves measuring the in vitro degradation activity of the compounds of the Table 1a.
The measurements of the degradation activities were made using a breast cancer cell ERα in cell western assay as described hereunder.
MCF7 cells (ATCC) were seeded in 384 wells microplate (collagen coated) at a concentration of 10000 cells/30 μL per well in red phenol free MEM alpha medium (invitrogen) containing 5% charcoal dextran striped FBS. The following day, 9 points serial 1:5 dilution of each compound was added to the cells in 2.5 μL at final concentrations ranging from 0.3-0.0000018 μM (in table 2), or 0.1 μM for fulvestrant (using as positive control). At 4 hours post compound addition the cells were fixed by adding 25 μL of formalin (final concentration 5% formalin containing 0.1% triton) for 10 minutes at room temperature and then washed twice with PBS. Then, 50 μL of LI-COR blocking buffer containing 0.1% Triton was added to plate for 30 minutes at room temperature. LI-COR blocking buffer was removed and cells were incubated overnight at cold room with 50 μL anti-ER rabbit monoclonal antibody (Thermo scientific MA1-39540) diluted at 1:1000 in LI-COR blocking buffer containing 0.1% tween-20. Wells which were treated with blocking buffer but no antibody were used as background control. Wells were washed twice with PBS (0.1% tween-20) and incubated at 37° C. for 60 minutes in LI-COR (0.1% tween-20) containing goat anti-rabbit antibody Alexa 488 (1:1000) and Syto-64 a DNA dye (2 μM final concentration). Cells were then washed 3 times in PBS and scanned in ACUMEN explorer (TTP-Labtech). Integrated intensities in the green fluorescence and red fluorescence were measured to determine the levels of ERα and DNA respectively.
The degradation activity with respect to estrogen receptors in this test is given by the concentration which degrades 50% of the estrogen receptor (or IC50) in nM.
The % of ERα levels decrease were determined as follows: % inhibition=100*(1−(sample−fulvestrant: DMSO−fulvestrant)).

% Degradation At 0.3 μM	Compound
76%	CC1CCC(C2=C(c3cccc(OC4CCN(CCCF)C4)c3)c3ccc(C(=O)O)cc3CCC2)CC1 (single isomer, unassigned; isomer 1) [Compound 11]
87%	O=C(O)c1ccc2c(c1)CCCC(c1ccc(Cl)cc1Cl)=C2c1cccc(CC2CCN(CCCF)C2)c1 (single isomer, unassigned; isomer 1) [Compound 28, 8-(2,4-dichlorophenyl)-9-(3-((1-(3-fluoropropyl)pyrrolidin-3-yl)methyl)phenyl)-6,7-dihydro-5H-benzo[7]annulene-3-carboxylic acid, Isomer 1]
69%	CC1CCc2cc(C(=O)O)ccc2C(c2cccc(OC3CCN(CCCF)C3)c2)=C1c1cccc(Cl)c1 (single isomer, unassigned; isomer 1) [Compound 36]
84%	CC1CCC(C2=C(c3cccc(OC4CCN(CCCF)C4)c3)c3ccc(C(=O)O)cc3CCC2)CC1 (single isomer, unassigned; isomer 2) [Compound 12]
67%	CC1CCc2cc(C(=O)O)ccc2C(c2cccc(OC3CCN(CCCF)C3)c2)=C1c1cccc(Cl)c1 (single isomer, unassigned; isomer 2) [Compound 37]
85%	O=C(O)c1ccc2c(c1)CCCC(c1ccc(Cl)cc1Cl)=C2c1cccc(O[C@@H]2CCN(CCCF)C2)c1 [Compound 1, (R)-8-(2,4-dichlorophenyl)-9-(3-((1-(3-fluoropropyl)pyrrolidin-3-yl)oxy)phenyl)-6,7-dihydro-5H-benzo[7]annulene-3-carboxylic acid]
Inactive	O=C(O)c1ccc2c(c1)CCCC(c1ccc(Cl)cc1Cl)=C2c1cccc(O[C@H]2CCN(CCCF)C2)c1 [Compound 1a, (S)-8-(2,4-dichlorophenyl)-9-(3-((1-(3-fluoropropyl)pyrrolidin-3-yl)oxy)phenyl)-6,7-dihydro-5H-benzo[7]annulene-3-carboxylic acid]
81%	O=C(O)c1ccc2c(c1)CCCC(c1ccccc1)=C2c1cccc(O[C@@H]2CCN(CCCF)C2)c1 [Compound 2, (R)-9-(3-((1-(3-fluoropropyl)pyrrolidin-3-yl)oxy)phenyl)-8-phenyl-6,7-dihydro-5H-benzo[7]annulene-3-carboxylic acid]
Inactive	O=C(O)c1ccc2c(c1)CCCC(c1ccccc1)=C2c1cccc(O[C@H]2CCN(CCCF)C2)c1 [Compound 2a, (S)-9-(3-((1-(3-fluoropropyl)pyrrolidin-3-yl)oxy)phenyl)-8-phenyl-6,7-dihydro-5H-benzo[7]annulene-3-carboxylic acid]
84%	O=C(O)c1ccc2c(c1)CCCC(c1ccccc1Cl)=C2c1cccc(O[C@@H]2CCN(CCCF)C2)c1 [Compound 3, (R)-8-(2-chlorophenyl)-9-(3-((1-(3-fluoropropyl)pyrrolidin-3-yl)oxy)phenyl)-6,7-dihydro-5H-benzo[7]annulene-3-carboxylic acid]
91%	O=C(O)c1ccc2c(c1)CCCC(c1ccc(F)cc1Cl)=C2c1cccc(O[C@@H]2CCN(CCCF)C2)c1 [Compound 5, (R)-8-(2-chloro-4-fluorophenyl)-9-(3-((1-(3-fluoropropyl)pyrrolidin-3-yl)oxy)phenyl)-6,7-dihydro-5H-benzo[7]annulene-3-carboxylic acid]
89%	O=C(O)c1ccc2c(c1)CCCC(c1ccc(Cl)cc1F)=C2c1cccc(O[C@@H]2CCN(CCCF)C2)c1 [Compound 6, (R)-8-(4-chloro-2-fluorophenyl)-9-(3-((1-(3-fluoropropyl)pyrrolidin-3-yl)oxy)phenyl)-6,7-dihydro-5H-benzo[7]annulene-3-carboxylic acid]
85%	Cc1ccc(C2=C(c3cccc(O[C@@H]4CCN(CCCF)C4)c3)c3ccc(C(=O)O)cc3CCC2)c(F)c1 [Compound 7, (R)-8-(2-fluoro-4-methylphenyl)-9-(3-((1-(3-fluoropropyl)pyrrolidin-3-yl)oxy)phenyl)-6,7-dihydro-5H-benzo[7]annulene-3-carboxylic acid]
90%	O=C(O)c1ccc2c(c1)CCCC(c1cccc(F)c1Cl)=C2c1cccc(O[C@@H]2CCN(CCCF)C2)c1 [Compound 9, (R)-8-(2-chloro-3-fluorophenyl)-9-(3-((1-(3-fluoropropyl)pyrrolidin-3-yl)oxy)phenyl)-6,7-dihydro-5H-benzo[7]annulene-3-carboxylic acid]
85%	Cl.O=C(O)c1ccc2c(c1)CCCC(C1CCC(F)(F)CC1)=C2c1cccc(O[C@@H]2CCN(CCCF)C2)c1 [Compound 10, (R)-8-(4,4-difluorocyclohexyl)-9-(3-((1-(3-fluoropropyl)pyrrolidin-3-yl)oxy)phenyl)-6,7-dihydro-5H-benzo[7]annulene-3-carboxylic acid hydrochloride]
57%	CC1(C)CCC(C2=C(c3cccc(O[C@@H]4CCN(CCCF)C4)c3)c3ccc(C(=O)O)cc3CCC2)CC1.Cl [Compound 13, (R)-8-(4,4-dimethylcyclohexyl)-9-(3-((1-(3-fluoropropyl)pyrrolidin-3-yl)oxy)phenyl)-6,7-dihydro-5H-benzo[7]annulene-3-carboxylic acid, hydrochloride]
77%	O=C(O)c1ccc2c(c1)CCCC(C1CCCC1)=C2c1cccc(O[C@@H]2CCN(CCCF)C2)c1 [Compound 14, (R)-8-cyclopentyl-9-(3-((1-(3-fluoropropyl)pyrrolidin-3-yl)oxy)phenyl)-6,7-dihydro-5H-benzo[7]annulene-3-carboxylic acid]
80%	Cc1c(O[C@@H]2CCN(CCCF)C2)cccc1C1=C(c2ccccc2)CCCc2cc(C(=O)O)ccc21 [Compound 15, (R)-9-(3-((1-(3-fluoropropyl)pyrrolidin-3-yl)oxy)-2-methylphenyl)-8-phenyl-6,7-dihydro-5H-benzo[7]annulene-3-carboxylic acid]
97%	Cc1c(O[C@@H]2CCN(CCCF)C2)cccc1C1=C(c2ccccc2Cl)CCCc2cc(C(=O)O)ccc21 [Compound 16, (R)-8-(2-chlorophenyl)-9-(3-((1-(3-fluoropropyl)pyrrolidin-3-yl)oxy)-2-methylphenyl)-6,7-dihydro-5H-benzo[7]annulene-3-carboxylic acid]
87%	Cc1c(O[C@@H]2CCN(CCCF)C2)cccc1C1=C(c2ccc(Cl)cc2Cl)CCCc2cc(C(=O)O)ccc21 [Compound 17, (R)-8-(2,4-dichlorophenyl)-9-(3-((1-(3-fluoropropyl)pyrrolidin-3-yl)oxy)-2-methylphenyl)-6,7-dihydro-5H-benzo[7]annulene-3-carboxylic acid]
78%	Cc1cc(F)ccc1C1=C(c2cccc(O[C@@H]3CCN(CCCF)C3)c2C)c2ccc(C(=O)O)cc2CCC1 [Compound 18, (R)-8-(4-fluoro-2-methylphenyl)-9-(3-((1-(3-fluoropropyl)pyrrolidin-3-yl)oxy)-2-methylphenyl)-6,7-dihydro-5H-benzo[7]annulene-3-carboxylic acid]
82%	Cl.O=C(O)c1ccc2c(c1)CCCC(c1ccccc1)=C2c1cccc(O[C@@H]2CCN(CCCF)C2)c1F [Compound 19, (R)-9-(2-fluoro-3-((1-(3-fluoropropyl)pyrrolidin-3-yl)oxy)phenyl)-8-phenyl-6,7-dihydro-5H-benzo[7]annulene-3-carboxylic acid, hydrochloride]
88%	Cl.O=C(O)c1ccc2c(c1)CCCC(c1ccccc1Cl)=C2c1cccc(O[C@@H]2CCN(CCCF)C2)c1F [Compound 20, (R)-8-(2-chlorophenyl)-9-(2-fluoro-3-((1-(3-fluoropropyl)pyrrolidin-3-yl)oxy)phenyl)-6,7-dihydro-5H-benzo[7]annulene-3-carboxylic acid, hydrochloride]

Same assay, conditions: text statement on comparative compounds

degradation activity for estrogen receptors (in words)	Compound
inactive	O=C(O)c1ccc2c(c1)CCCC(c1ccc(Cl)cc1Cl)=C2c1cccc(O[C@H]2CCN(CCCF)C2)c1 [Compound 1a, (S)-8-(2,4-dichlorophenyl)-9-(3-((1-(3-fluoropropyl)pyrrolidin-3-yl)oxy)phenyl)-6,7-dihydro-5H-benzo[7]annulene-3-carboxylic acid]
inactive	O=C(O)c1ccc2c(c1)CCCC(c1ccccc1)=C2c1cccc(O[C@H]2CCN(CCCF)C2)c1 [Compound 2a, (S)-9-(3-((1-(3-fluoropropyl)pyrrolidin-3-yl)oxy)phenyl)-8-phenyl-6,7-dihydro-5H-benzo[7]annulene-3-carboxylic acid]
